From patent publication US11896568B2, “Compositions and methods for treating patients suffering from glioma or leukemia” (University of Cincinnati, priority 2016, dated 2024)

Key:
[1] = system: Primary AML cells with IDH mutations; experiment: JQ1 sensitivity of primary AML cells; type: cell-based, human; conditions: "often"
[2] = system: R-2HG-resistant leukemic cells; experiment: JQ1 with R-2HG in resistant leukemic cells, cell viability; type: cell-based, human; conditions: inhibition of MYC signaling by JQ1
Method: Cell proliferation/viability, cell cycle and cell apoptosis assays. To study the effects of R-2HG, FTO, or IDH1^R132H on viability, the cells were seeded into 96-well plates at the concentration of 5,000-10,000 cells/well in triplicates and MTT (G4000, Promega) was used to assess cell proliferation and viability following the manufacturer's instructions. For cell cycle analysis, Propidium iodide (PI) DNA staining was used to assess the cells at G0/G1, S and G2/M phases, while Hoechst 33342 and Pyronin Y were used to determine the cells at G0, G1 and S/G2/M stages. For the PI staining, cells were resuspended in Krishan's reagent (0.05 mg/ml PI, 0.1% trisodium citrate, 0.02 mg/ml ribonuclease A, 0.3% NP-40), incubated at 37° C. for 30 minutes and then applied to the flow cytometer.; For Hoechst/Pyronin Y staining, the cells were suspended in cell culture medium, incubated at 37° C. for 45 minutes with existence of 10 ug/mL Hoechst 33342 and further incubated at 37° C. for 15 minutes with existence of Pyronin Y before flow cytometry. Cell apoptosis assay was conducted with FITC Annexin V Apoptosis Detection Kit I (BD Pharmingen) according to the manufacturer's instructions.

Cc1sc2c(c1C)C(c1ccc(Cl)cc1)=N[C@@H](CC(=O)OC(C)(C)C)c1nnc(C)n1-2 [JQ1]
IC50 [1]: < 1000 nM | sensitivity of R-2HG-resistant leukemic cells to exogenous R-2HG or IDH1^R132H [2]: notably increased sensitivity
